US7968570B2, “Isoindolone compounds and their use as metabotropic glutamate receptor potentiators” (AstraZeneca AB, priority 2004, dated 2011)
pEC50: −log10 of the molar value.

target: T1, human mGluR2 receptor (Homo sapiens, UniProt Q14416); assay: [35S]-GTPγS binding assay of mGluR2 receptor activation; assay type: biochemical; settings: not given
T1 construct: expressed in transfected cells
Summary of the method: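 CHO membranes stably expressing human mGluR2 (30 μg) preincubated 15 min at room temperature with compound (3 nM–300 μM), then 1 μM glutamate, 30 μM GDP, 0.1 nM [35S]-GTPγS, 30 min at 30° C in HEPES/NaCl/MgCl2. Filtration counting; EC50 and Emax relative to maximal glutamate effect by non-linear regression.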

T1 sequence (Q14416 19-872): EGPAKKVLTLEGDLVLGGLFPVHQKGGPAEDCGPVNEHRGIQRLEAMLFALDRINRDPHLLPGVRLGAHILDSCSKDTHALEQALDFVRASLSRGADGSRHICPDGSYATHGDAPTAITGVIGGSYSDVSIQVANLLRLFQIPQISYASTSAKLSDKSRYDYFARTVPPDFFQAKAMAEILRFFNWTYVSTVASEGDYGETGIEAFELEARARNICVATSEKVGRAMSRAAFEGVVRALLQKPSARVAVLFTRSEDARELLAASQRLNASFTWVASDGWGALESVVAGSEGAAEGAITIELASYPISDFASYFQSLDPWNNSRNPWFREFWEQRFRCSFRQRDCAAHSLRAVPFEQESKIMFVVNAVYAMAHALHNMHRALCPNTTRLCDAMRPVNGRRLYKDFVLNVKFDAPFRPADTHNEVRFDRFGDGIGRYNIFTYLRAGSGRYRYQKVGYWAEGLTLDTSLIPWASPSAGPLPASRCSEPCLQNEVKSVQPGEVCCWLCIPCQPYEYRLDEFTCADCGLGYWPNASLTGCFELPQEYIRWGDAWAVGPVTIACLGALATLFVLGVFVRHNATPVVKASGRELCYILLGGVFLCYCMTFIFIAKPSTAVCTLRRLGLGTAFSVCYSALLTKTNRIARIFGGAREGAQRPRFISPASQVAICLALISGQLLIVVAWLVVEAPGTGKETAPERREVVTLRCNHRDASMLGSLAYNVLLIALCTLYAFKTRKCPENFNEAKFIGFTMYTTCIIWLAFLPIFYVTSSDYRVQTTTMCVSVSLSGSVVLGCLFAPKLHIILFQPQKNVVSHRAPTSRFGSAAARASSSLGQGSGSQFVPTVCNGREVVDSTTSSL

With `O=C1c2c(Cl)cc(CC3CCN(Cc4ccncc4)CC3)cc2CN1Cc1ccc(OC(F)(F)F)cc1` [Example 182] as the molecule, how does the pEC50 read?
Its pEC50 is 7.40.

`Cc1cc(-c2nc(CN(C)C)no2)cc2c1C(=O)N(Cc1ccc(OC(F)(F)F)cc1)C2` [Example 180, 5-(3-Dimethylamino-methyl-[1,2,4]oxadiazol-5-yl)-7-methyl-2-(4-trifluorometh-oxy-benzyl)-2,3-dihydro-isoindol-1-one] was tested. Which pEC50 did it give?
Its pEC50 is 7.00.

How did the pEC50 turn out when `Cc1cc(CC2CCN(Cc3ccncc3)CC2)cc2c1C(=O)N(Cc1ccc(OC(F)(F)F)cc1)C2` [Example 170, 7-methyl-5-(1-pyridin-4-ylmethyl-piperidin-4-ylmethyl)-2-(4-trifluorometh-oxy-benzyl)-2,3-dihydro-isoindol-1-one] was run?
Its pEC50 is 7.10.

How did the pEC50 turn out when `CCN(CC)Cc1noc(-c2cc(C)c3c(c2)CN(Cc2ccc(OC(F)(F)F)cc2)C3=O)n1` [Example 177, 5-(3- Diethylaminomethyl-[1,2,4]oxadiazol-5-yl)-7-methyl-2-(4-trifluorometh-oxy-benzyl)-2,3-dihydro-isoindol-1-one] was run?
The pEC50 was 6.85.

`Cc1cc(-c2nnc(CN3CCOCC3)o2)cc2c1C(=O)N(Cc1ccc(OC(F)(F)F)cc1)C2` [Example 176, 7-Methyl-5-(5-morpholin-4-ylmethyl-[1,3,4]oxadiazol-2-yl)-2-(4-trifluorometh-oxy-benzyl)-2,3-dihydro-isoindol-1-one] was tested. Which pEC50 did it give?
Its pEC50 is 5.89.

same assay, conditions: membranes from CHO cells stably expressing human mGluR2; 1 μM glutamate

`COc1cc(C2=CCN(C)CC2)cc2c1C(=O)N(Cc1ccc(OC(F)(F)F)cc1)C2` [Example 90, 7-Methoxy-5-(1-methyl-1,2,3,6-tetrahydro-pyridin-4-yl)-2-(4-trifluoromethoxy-benzyl)-2,3-dihydro-isoindol-1-one] was tested. Which pEC50 did it give?
Its pEC50 is 5.42.

`Cc1cc(CNCc2ccccc2)cc2c1C(=O)N(Cc1ccc(OC(F)(F)F)cc1)C2` [Example 45, 5-(Benzylamino-methyl)-7-methyl-2-(4-trifluoromethoxy-benzyl)-2,3-dihydro-isoindol-1-one] was tested. Which pEC50 did it give?
The pEC50 was 6.41.

With `Cc1cc(-c2cccc(CN(C)C)c2)cc2c1C(=O)N(Cc1ccc(OC(F)(F)F)cc1)C2` [Example 87, 5-(3-Dimethylamino-methyl-phenyl)-7-methyl-2-(4-trifluoromethoxy-benzyl)-2,3-dihydro-isoindol-1-one] as the molecule, how does the pEC50 read?
Its pEC50 is 6.54.

`CCN1CCN(c2cc3c(c(OC)c2)C(=O)N(Cc2ccc(OC(F)(F)F)cc2)C3)CC1` [Example 127, 5-(4-Ethylpiperazin-1-yl)-7-methoxy-2-(4-trifluoromethoxy-benzyl)-2,3-dihydroisoindol-1-one] was tested. Which pEC50 did it give?
The pEC50 was 5.33.

`Cc1cc(CNCC(C)O)cc2c1C(=O)N(Cc1ccc(OC(F)(F)F)cc1)C2` (centres unmarked) [Example 52, 5-[(2-Hydroxy-propylamino)-methyl]-7-methyl-2-(4-trifluoromethoxy-benzyl)-2,3-dihydro-isoindol-1-one] was tested. Which pEC50 did it give?
The pEC50 was 5.15.

With `O=C1c2c(Cl)cc(-c3ccncc3)cc2CN1Cc1ccc(OC(F)(F)F)cc1` [Example 102, 7-Chloro-5-pyridin-4-yl-2-(4-trifluoromethoxy-benzyl)-2,3-dihydro-isoindol-1-one] as the molecule, how does the pEC50 read?
The pEC50 was 7.05.

How did the pEC50 turn out when `O=C1c2ccc(N3CCOCC3)cc2CN1Cc1ccc(OC(F)(F)F)cc1` [Example 150, 5-Morpholin-4-yl-2-(4-trifluoromethoxy-benzyl)-2,3-dihydro-isoindol-1-one] was run?
Its pEC50 is 5.06.

`Cc1cc(CN2CCOCC2)cc2c1C(=O)N(Cc1ccc(OC(F)(F)F)cc1)C2` [Example 44, 7-Methyl-5-morpholin-4-ylmethyl-2-(4-trifluoromethoxy-benzyl)-2,3-dihydro-isoindol-1-one] was tested. Which pEC50 did it give?
Its pEC50 is 6.23.

With `Cc1cc(N2CCN(CCc3ccncc3)CC2)cc2c1C(=O)N(Cc1ccc(OC(F)(F)F)cc1)C2` [Example 137] as the molecule, how does the pEC50 read?
Its pEC50 is 7.00.

How did the pEC50 turn out when `Cc1cc(CNCCCc2ccccc2)cc2c1C(=O)N(Cc1ccc(OC(F)(F)F)cc1)C2` [Example 47, 7-Methyl-5-[(3-phenyl-propylamino)-methyl]-2-(4-trifluoromethoxy-benzyl)-2,3-dihydro-isoindol-1-one] was run?
Its pEC50 is 6.47.

`COCCN1CCN(c2ccc3c(c2)CN(Cc2ccc(OC(F)(F)F)cc2)C3=O)CC1` [Example 147, 5-[4-(2-Methoxy-ethyl)-piperazin-1-yl]-2-(4-trifluoromethoxy-benzyl)-2,3-dihydro-isoindol-1-one] was tested. Which pEC50 did it give?
The pEC50 was 5.18.

How did the pEC50 turn out when `Cc1cc(CNCc2cccnc2)cc2c1C(=O)N(Cc1ccc(OC(F)(F)F)cc1)C2` [Example 41, 7-Methyl-5-{[(pyridine-3-ylmethyl)-amino]-methyl}-2-(4-trifluoromethoxy-benzyl)-2,3-dihydro-isoindol-1-one] was run?
Its pEC50 is 6.04.

How did the pEC50 turn out when `Cc1cc(CN2CCC(CCCc3ccc(-n4ccnc4)cc3)CC2)cc2c1C(=O)N(Cc1ccc(OC(F)(F)F)cc1)C2` [Example 55, 5-{4-[3-(4-Imidazol-1-yl-phenyl)-propyl]-piperidin-1-ylmethyl}-7-methyl-2-(4-trifluoromethoxy-benzyl)-2,3-dihydroisoindol-1-one] was run?
Its pEC50 is 7.70.

How did the pEC50 turn out when `CN(C)[C@H]1CCN(c2cc(Cl)c3c(c2)CN(Cc2ccc(OC(F)(F)F)cc2)C3=O)C1` (stereo in doubt) [Example 144, 7-Chloro-5-(3-dimethylamino-pyrrolidin-1-yl)-2-(4-trifluoromethoxy-benzyl)-2,3-dihydro-isoindol-1-one] was run?
Its pEC50 is 6.51.

With `COc1cc(N2CCN3CCCC3C2)cc2c1C(=O)N(Cc1ccc(OC(F)(F)F)cc1)C2` (centres unmarked) [Example 124, 5- (Hexahydropyrrolo [1,2-a]pyrazin-2-yl)-7-methoxy-2-(4-trifluoromethoxy-benzyl)-2,3-dihydroisoindol-1-one] as the molecule, how does the pEC50 read?
Its pEC50 is 5.72.

How did the pEC50 turn out when `COc1cc(N2CCN3CCCC3C2)cc2c1C(=O)N(Cc1ccc(Cl)cc1)C2` (centres unmarked) [Example 129] was run?
Its pEC50 is 5.20.

With `Cc1cc(-c2cccnc2)cc2c1C(=O)N(Cc1ccc(Oc3ccccc3)cc1)C2` [Example 104, 7-Methyl-2-(4-phenoxy-benzyl)-5-pyridin-3-yl-2,3-dihydro-isoindol-1-one] as the molecule, how does the pEC50 read?
Its pEC50 is 7.30.

With `Cc1cc(N2CCN(Cc3ccncc3)CC2)cc2c1C(=O)N(Cc1ccc(OC(F)(F)F)cc1)C2` [Example 136, 7-Methyl-5-(4-pyridin-4-ylmethyl-piperazin-1-yl)-2-(4-trifluoromethoxy-benzyl)-2,3-dihydro-isoindol-1-one] as the molecule, how does the pEC50 read?
Its pEC50 is 6.15.

With `Cc1cc(C2CCNCC2)cc2c1C(=O)N(Cc1ccc(OC(F)(F)F)cc1)C2` [Example 158, 7-Methyl-5-piperidin-4-yl-2-(4-trifluoromethoxy-benzyl)-2,3-dihydro-isoindol-1-one] as the molecule, how does the pEC50 read?
Its pEC50 is 5.69.

With `Cc1cc(N2CCCN(C)CC2)cc2c1C(=O)N(Cc1ccc(OC(F)(F)F)cc1)C2` [Example 113, 7-Methyl-5-(4-methyl-[1,4]-diazepan-1-yl)-2-(4-trifluoromethoxy-benzyl)-2,3-dihydroisoindol-1-one] as the molecule, how does the pEC50 read?
The pEC50 was 5.92.

With `O=C1c2c(Cl)cc(Br)cc2CN1Cc1ccc(Cl)cc1` [Example 34, 5-Bromo-7-chloro-2-(4-chloro-benzyl)-2,3-dihydro-isoindol-1-one] as the molecule, how does the pEC50 read?
The pEC50 was 6.33.

With `Cc1cc(N2CCC(N(C)C)C2)cc2c1C(=O)N(Cc1ccc(Cl)cc1)C2` (centres unmarked) [Example 119, 2-(4-chlorobenzyl)-5-(3-dimethylamino-pyrollidin-1-yl)-7-methyl-2,3-dihydroisoindol-1-one] as the molecule, how does the pEC50 read?
The pEC50 was 6.38.

`Cc1cc(-c2cccnc2)cc2c1C(=O)N(Cc1ccc(Cl)cc1)C2` [Example 98, 2-(4-chlorobenzyl)-7-methyl-5-pyridin-3-yl-2,3-dihydroisoindol-1-one] was tested. Which pEC50 did it give?
The pEC50 was 7.00.

`Cc1cc(N2CCN(CCCN(C)C)CC2)cc2c1C(=O)N(Cc1ccc(OC(F)(F)F)cc1)C2` [Example 141, 5-[4-(3-Dimethylamino-propyl)-piperazin-1-yl]-7-methyl-2-(4-trifluoro-methoxy-benzyl)-2,3-dihydro-isoindol-1-one] was tested. Which pEC50 did it give?
The pEC50 was 6.12.

With `Cc1cc(C(=O)N2CCN(CCc3ccncc3)CC2)cc2c1C(=O)N(Cc1ccc(OC(F)(F)F)cc1)C2` [Example 163, 7-Methyl-5-[4-(2-pyridin-4-yl-ethyl)piperazine-1-carbonyl]-2-(4-trifluoromethoxy-benzyl)-2,3-dihydro-isoindol-1-one] as the molecule, how does the pEC50 read?
Its pEC50 is 5.92.

How did the pEC50 turn out when `Cc1cc(CN2CCC(n3c(=O)[nH]c4ccccc43)CC2)cc2c1C(=O)N(Cc1ccc(OC(F)(F)F)cc1)C2` [Example 56, 1-{1-[7-Methyl-1-oxo-2-(4-trifluoromethoxy-benzyl)-2,3-dihydro-1H-isoindol-5-ylmethyl]-piperidin-4-yl}-1,3-dihydro-benzoimidazol-2-one] was run?
The pEC50 was 7.22.

With `Cc1cc(-c2ccc(CN(C)C)cc2)cc2c1C(=O)N(Cc1ccc(OC(F)(F)F)cc1)C2` [Example 86, 5-(4-Dimethylamino-methyl-phenyl)-7-methyl-2-(4-trifluoromethoxy-benzyl)-2,3-dihydro-isoindol-1-one] as the molecule, how does the pEC50 read?
Its pEC50 is 7.22.

With `COCCCNCc1cc(C)c2c(c1)CN(Cc1ccc(OC(F)(F)F)cc1)C2=O` [Example 51, 5-[(3-Methoxy-propylamino)-methyl]-7-methyl-2-(4-trifluoromethoxy-benzyl)-2,3-dihydro-isoindol-1-one] as the molecule, how does the pEC50 read?
Its pEC50 is 5.74.

`Cc1cc(-c2ccncc2)cc2c1C(=O)N(Cc1ccc(OC(F)(F)F)cc1)C2` [Example 96, 7-Methyl-5-pyridin-4-yl-2-(trifluoromethoxybenzyl)-2,3-dihydroisoindol-1-one] was tested. Which pEC50 did it give?
Its pEC50 is 6.89.

With `O=C1c2c(Cl)cc(N3CCN(c4ccncc4)CC3)cc2CN1Cc1ccc(OC(F)(F)F)cc1` [Example 145, 7-Chloro-5-(4-pyridin-4-yl-piperazin-1-yl)-2-(4-trifluoromethoxy-benzyl)-2,3-dihydro-isoindol-1-one] as the molecule, how does the pEC50 read?
Its pEC50 is 6.40.

`COc1cc(N2CCCN(C)CC2)cc2c1C(=O)N(Cc1ccc(OC(F)(F)F)cc1)C2` [Example 128, 7-Methoxy-5-(4-methyl-[1,4]-diazepan-1-yl)-2-(4-triflouoromethoxy-benzyl)-2,3-dihydro-isoindol-1-one] was tested. Which pEC50 did it give?
Its pEC50 is 5.30.

How did the pEC50 turn out when `Cc1ccc(CN2Cc3cc(C4=CCN(C)CC4)ccc3C2=O)cc1` [Example 89] was run?
The pEC50 was 5.01.

`Cc1cc(OCc2ccccn2)cc2c1C(=O)N(Cc1ccc(OC(F)(F)F)cc1)C2` [Example 82, 7-Methyl-5-(pyridine-2-ylmethoxy)-2-(4-trifluoromethoxy-benzyl)-2,3-dihydro-isoindol-1-one] was tested. Which pEC50 did it give?
Its pEC50 is 7.00.
